Measurements taken from patent US9522881B2, “Hydroxyindole carboxylic acid based inhibitors for oncogenic Src homology-2 domain containing protein tyrosine phosphatase-2 (SHP2)” (Indiana University Research and Technology Corporation, priority 2013, dated 2016).

What was measured:
[1] = biological target: SHP2 (Homo sapiens (Human), UniProt Q06124); experiment: SHP2-catalyzed hydrolysis of p-nitrophenyl phosphate (pNPP); type: biochemical
Experimental: Libraries 11a-d were screened at ˜5 μM for SHP2 inhibitors without further purification. The ability of the library components to inhibit the SHP2-catalyzed hydrolysis of p-nitrophenyl phosphate (pNPP) was evaluated at pH 7.0 and 25° C. More particularly, the phosphatase activity of SHP2 was assayed using p-nitrophenyl phosphate (pNPP) as a substrate at 25° C. in 50 mM 3,3-dimethylglutarate buffer, pH 7.0, containing 1 mM EDTA with an ionic strength of […] adjusted by NaCl. The libraries were screened in a 96-well format at 5 μM compound concentration. […] The nonenzymatic hydrolysis of pNPP was corrected by measuring the control without the addition of enzyme. The amount of product p-nitrophenol was determined from the absorbance at 405 nm detected by a Spectra MAX340 microplate spectrophotometer (Molecular Devices, Sunnyvale, Calif.) using a molar extinction coefficient of 18,000 M^−1 cm^−1. […] IC50 values for selected resynthesized and purified hits were calculated by fitting the absorbance at 405 nm versus inhibitor concentration to the following equation: AI/A0=IC50/(IC50+[I]) where AI is the absorbance at 405 nm of the sample in the presence of the inhibitor; A0 is the absorbance at 405 nm in the absence of inhibitor; and [I] is the concentration of the inhibitor.

[2] = biological target: PTPσ (Homo sapiens (Human), UniProt Q13332); experiment: PTP selectivity panel, pNPP; type: biochemical, mammalian; details: pNPP at Km
PTPσ, sequence (Q13332 30-1948): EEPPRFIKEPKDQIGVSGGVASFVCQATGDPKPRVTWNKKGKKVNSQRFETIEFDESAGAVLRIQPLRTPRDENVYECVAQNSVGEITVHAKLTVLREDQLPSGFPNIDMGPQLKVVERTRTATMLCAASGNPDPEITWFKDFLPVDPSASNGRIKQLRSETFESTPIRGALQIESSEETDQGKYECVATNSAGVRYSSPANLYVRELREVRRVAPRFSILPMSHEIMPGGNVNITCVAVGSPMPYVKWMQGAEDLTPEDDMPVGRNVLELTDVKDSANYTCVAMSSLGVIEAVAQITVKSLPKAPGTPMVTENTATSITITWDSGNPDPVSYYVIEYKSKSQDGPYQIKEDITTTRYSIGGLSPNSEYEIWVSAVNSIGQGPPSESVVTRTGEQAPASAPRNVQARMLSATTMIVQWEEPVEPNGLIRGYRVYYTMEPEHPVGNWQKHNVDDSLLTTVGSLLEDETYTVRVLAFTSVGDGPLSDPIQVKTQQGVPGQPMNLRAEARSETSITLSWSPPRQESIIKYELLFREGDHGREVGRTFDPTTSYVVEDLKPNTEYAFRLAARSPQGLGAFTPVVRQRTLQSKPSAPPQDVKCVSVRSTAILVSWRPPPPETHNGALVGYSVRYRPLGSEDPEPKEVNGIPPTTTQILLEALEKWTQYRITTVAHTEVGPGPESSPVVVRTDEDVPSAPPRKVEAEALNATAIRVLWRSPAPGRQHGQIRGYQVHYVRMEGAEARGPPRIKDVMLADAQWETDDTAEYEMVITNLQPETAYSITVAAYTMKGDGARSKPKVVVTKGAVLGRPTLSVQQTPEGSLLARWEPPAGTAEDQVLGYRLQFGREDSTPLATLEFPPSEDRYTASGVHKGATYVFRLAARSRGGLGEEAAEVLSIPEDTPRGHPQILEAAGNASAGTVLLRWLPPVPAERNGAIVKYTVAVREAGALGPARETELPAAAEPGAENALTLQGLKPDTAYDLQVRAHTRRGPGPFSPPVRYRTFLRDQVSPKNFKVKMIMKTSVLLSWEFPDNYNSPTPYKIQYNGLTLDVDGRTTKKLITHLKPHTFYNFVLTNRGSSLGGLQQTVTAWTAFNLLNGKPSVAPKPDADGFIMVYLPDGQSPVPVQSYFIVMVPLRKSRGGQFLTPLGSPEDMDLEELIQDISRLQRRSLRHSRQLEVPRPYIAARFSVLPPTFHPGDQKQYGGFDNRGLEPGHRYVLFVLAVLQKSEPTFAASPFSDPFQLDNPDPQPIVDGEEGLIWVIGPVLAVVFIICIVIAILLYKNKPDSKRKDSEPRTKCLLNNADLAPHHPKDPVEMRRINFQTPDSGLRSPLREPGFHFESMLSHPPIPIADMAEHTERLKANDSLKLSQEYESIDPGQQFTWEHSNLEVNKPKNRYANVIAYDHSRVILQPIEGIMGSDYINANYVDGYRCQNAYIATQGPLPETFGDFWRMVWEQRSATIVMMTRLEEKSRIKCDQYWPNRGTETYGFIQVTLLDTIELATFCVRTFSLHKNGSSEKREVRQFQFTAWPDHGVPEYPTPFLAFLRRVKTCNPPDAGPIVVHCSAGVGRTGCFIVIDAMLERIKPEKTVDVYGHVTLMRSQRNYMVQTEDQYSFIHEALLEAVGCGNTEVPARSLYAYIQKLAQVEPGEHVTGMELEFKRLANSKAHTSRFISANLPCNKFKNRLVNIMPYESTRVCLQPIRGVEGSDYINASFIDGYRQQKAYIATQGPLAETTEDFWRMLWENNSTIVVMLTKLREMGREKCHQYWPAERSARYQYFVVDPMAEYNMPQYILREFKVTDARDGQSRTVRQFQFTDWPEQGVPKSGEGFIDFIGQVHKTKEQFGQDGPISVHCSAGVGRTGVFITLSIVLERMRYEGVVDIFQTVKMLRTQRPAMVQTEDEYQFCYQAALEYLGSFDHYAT

[3] = biological target: PEZ (Homo sapiens (Human), UniProt Q15678); experiment: PTP selectivity panel, pNPP; type: biochemical, mammalian; details: pNPP at Km
PEZ, sequence (Q15678 whole entry, species assumed): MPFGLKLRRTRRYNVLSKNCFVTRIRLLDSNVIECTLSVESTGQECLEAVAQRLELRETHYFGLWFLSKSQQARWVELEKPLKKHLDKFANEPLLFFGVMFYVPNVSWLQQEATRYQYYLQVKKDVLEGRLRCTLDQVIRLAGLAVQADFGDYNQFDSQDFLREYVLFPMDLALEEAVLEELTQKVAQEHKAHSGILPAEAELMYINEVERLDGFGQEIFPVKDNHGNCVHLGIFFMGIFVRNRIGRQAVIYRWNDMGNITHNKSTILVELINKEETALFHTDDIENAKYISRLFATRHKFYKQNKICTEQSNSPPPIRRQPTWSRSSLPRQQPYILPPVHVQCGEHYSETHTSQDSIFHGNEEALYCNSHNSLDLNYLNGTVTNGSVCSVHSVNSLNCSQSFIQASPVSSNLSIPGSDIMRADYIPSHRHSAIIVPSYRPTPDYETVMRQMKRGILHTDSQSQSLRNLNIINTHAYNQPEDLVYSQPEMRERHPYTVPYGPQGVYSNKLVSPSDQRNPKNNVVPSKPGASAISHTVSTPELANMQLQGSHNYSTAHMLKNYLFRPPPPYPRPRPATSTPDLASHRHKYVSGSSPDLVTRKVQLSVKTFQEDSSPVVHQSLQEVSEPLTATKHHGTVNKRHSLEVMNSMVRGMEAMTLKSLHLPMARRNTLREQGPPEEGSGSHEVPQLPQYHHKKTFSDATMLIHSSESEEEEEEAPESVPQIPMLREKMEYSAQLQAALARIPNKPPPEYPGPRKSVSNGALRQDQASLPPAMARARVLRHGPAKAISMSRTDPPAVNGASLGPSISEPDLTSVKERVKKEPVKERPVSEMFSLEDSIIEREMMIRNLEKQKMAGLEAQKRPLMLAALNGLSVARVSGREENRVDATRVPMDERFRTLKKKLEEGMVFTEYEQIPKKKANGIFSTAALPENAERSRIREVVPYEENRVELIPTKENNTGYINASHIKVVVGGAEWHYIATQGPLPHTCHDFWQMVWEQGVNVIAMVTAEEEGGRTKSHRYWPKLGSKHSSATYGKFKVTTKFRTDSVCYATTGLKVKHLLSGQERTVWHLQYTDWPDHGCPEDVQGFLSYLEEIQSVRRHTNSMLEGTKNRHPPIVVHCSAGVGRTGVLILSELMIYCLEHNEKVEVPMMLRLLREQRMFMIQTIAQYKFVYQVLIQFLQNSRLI

[4] = test system: 32D myeloid cells bearing KITD814V; experiment: Proliferation (thymidine incorporation) of 32D myeloid cells bearing KITD814V; type: cell-based
Experimental: (§1) FIG. 8A is a graph depicting 32D myeloid cells bearing wild-type (WT) KIT or KITD814V that were starved of serum and growth factors for 6 hours and subjected to proliferation assay in the presence or absence of the indicated concentration of II-B08 or 11a-1 as analyzed in Example 6. Assay was performed in the presence of IL-3 (10 ng/mL) for cells bearing WT KIT and in the absence of growth factors for cells bearing oncogenic KITD814V. Bars denote the mean thymidine incorporation (CPM±SEM) consolidated from four independent experiments performed in triplicate. *p<0.05.
(§2) To further determine the efficacy of compound 11a-1, the growth of oncogenic KITD814V bearing 32D myeloid cells in the presence of II-B08 and 11a-1 were compared. Specifically, the wild-type (WT) KIT and KITD814V were inserted into the bicistronic retroviral vector, MIEG3, upstream of the internal ribosome entry site (IRES) and the enhanced green fluorescent protein (EGFP) gene as previously described in Mali et al., 2012. Retroviral supernatants for transduction of 32D myeloid cells and primary hematopoietic stem and progenitor cells were generated using Phoenix ecotropic packaging cell line transfected with retroviral vector plasmids using a calcium phosphate transfection kit (Invitrogen, Carlsbad, Calif.). Supernatants were collected 48 hours after transfection and filtered through 0.45 μm membranes. 32D myeloid cells were infected twice at 24-hour intervals with 2 mL high/titer virus supernatant in the presence of 10 ng/mL IL-3 and 8 μg/mL polybrene. Forty-eight hours after infection, 32D cells expressing WT KIT or KITD814V receptors were sorted to homogeneity based on EGFP expression and utilized to perform all of the experiments.

[5] = test system: H1975 cells; experiment: H1975 cell proliferation (MTT assay); type: cell-based; details: Homo sapiens, NCI-H1975, 48 h, treatment for 2 days
Experimental: Particularly, human non-small cell lung carcinoma cell line H1975 was obtained from the American Tissue Culture Collection and cultured at 37° C. and 5% CO2 in RPMI-1640 (Corning, Corning, N.Y.) supplemented with 10% fetal bovine serum. 3×10^3 cells were seeded in each well of 96-well plates. After treatment with compound 11a-1 for 2 days, cells were incubated with 50 μg/ml MTT (3-(4,5-Dimethylthiazol-2-yl)-2,5-diphenyltetrazolium bromide (Sigma, St. Louis, Mo.) for 3-4 hours. Then, the culture medium was removed, DMSO was added to dissolve the formazan crystals. Wells containing only media were used for background correction. The optical density was measured spectrophotometrically at 540 nm.

[6] = test system: phosphorylation of SHP2, Akt and Erk1/2; experiment: Phosphorylation of SHP2, Akt and Erk1/2 in 32D cells bearing KITD814V (western blot); type: cell-based; details: incubated 2 hours
Experimental: FIG. 8C depicts 32D myeloid cells bearing KITD814V that were starved of serum and growth factors for 6 hours and incubated with the indicated concentration of 11a-1 for 2 hours as analyzed in Example 6. After treatment, cells were lysed and equal amount of protein lysates were subjected to western blot analysis using indicated antibodies.

[7] = biological target: PTP1B (Homo sapiens (Human), UniProt P18031); experiment: PTP selectivity panel, pNPP; type: biochemical, mammalian
PTP1B, sequence (P18031 whole entry, species assumed): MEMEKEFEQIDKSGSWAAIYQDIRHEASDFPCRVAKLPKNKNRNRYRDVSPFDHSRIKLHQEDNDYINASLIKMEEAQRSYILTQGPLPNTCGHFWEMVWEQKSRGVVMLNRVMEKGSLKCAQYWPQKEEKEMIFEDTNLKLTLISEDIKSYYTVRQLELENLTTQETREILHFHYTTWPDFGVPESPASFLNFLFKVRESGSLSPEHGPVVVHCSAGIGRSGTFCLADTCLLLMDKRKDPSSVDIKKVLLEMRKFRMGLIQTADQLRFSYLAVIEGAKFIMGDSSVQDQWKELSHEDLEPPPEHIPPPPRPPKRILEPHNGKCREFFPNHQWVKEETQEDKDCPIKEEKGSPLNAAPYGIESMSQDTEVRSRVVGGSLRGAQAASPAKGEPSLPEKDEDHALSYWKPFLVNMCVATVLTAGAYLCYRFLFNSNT

[8] = biological target: mPTPA (Mycobacterium tuberculosis (strain ATCC 25618 / H37Rv), UniProt P9WIA1); experiment: PTP selectivity panel, pNPP; type: biochemical; details: pNPP at Km
[9] = test system: 32D myeloid cells bearing wild-type (WT) KIT; experiment: Proliferation (thymidine incorporation) of 32D myeloid cells bearing WT KIT; type: cell-based; details: tested concentrations, with IL-3
Experimental: as §1
as §2, with “32D myeloid cells were infected twice at 24-hour intervals with 2 mL high/titer virus supernatant in the presence of 10 ng/mL IL-3 and 8 μg/mL polybrene. Forty-eight hours after infection, 32D cells expressing WT KIT or KITD814V receptors were sorted to homogeneity based on EGFP expression and utilized to perform all of the experiments.” left out

SHP2, sequence (Q06124 whole entry, looked up): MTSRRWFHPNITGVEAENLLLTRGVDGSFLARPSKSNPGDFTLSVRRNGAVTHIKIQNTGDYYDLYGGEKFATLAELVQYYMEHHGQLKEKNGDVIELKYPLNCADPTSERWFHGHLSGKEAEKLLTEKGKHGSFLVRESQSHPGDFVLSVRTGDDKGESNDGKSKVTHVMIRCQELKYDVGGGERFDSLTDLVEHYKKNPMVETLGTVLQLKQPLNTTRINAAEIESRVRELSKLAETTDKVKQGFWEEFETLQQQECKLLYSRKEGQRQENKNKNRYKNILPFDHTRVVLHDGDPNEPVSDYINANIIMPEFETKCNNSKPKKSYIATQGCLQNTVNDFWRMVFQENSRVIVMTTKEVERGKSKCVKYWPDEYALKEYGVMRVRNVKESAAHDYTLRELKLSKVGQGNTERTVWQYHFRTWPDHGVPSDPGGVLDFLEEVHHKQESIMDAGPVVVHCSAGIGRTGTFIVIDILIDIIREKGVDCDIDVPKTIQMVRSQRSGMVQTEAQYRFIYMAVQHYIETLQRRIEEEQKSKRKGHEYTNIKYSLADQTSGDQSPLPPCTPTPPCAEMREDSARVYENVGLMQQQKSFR

Cn1c(-c2cccc(NC(=O)C(=O)Nc3ccc(-c4ccsc4)cc3)c2)c(I)c2cc(C(=O)O)c(O)cc21 [11a-1, 6-hydroxy-3-iodo-1-methyl-2-(3-(2-oxo-2-((4-(thiophen-3-yl)phenyl)amino)acetamido)phenyl)-1H-indole-5-carboxylic acid]
selectivity for SHP2 over a panel of 20 mammalian PTPs [1]: over 5 fold
IC50 ([1]; pNPP substrate, pH 7.0, 25° C.): 0.2 ± 0.02 µM
IC50 [2]: 8.6 ± 0.4 µM
IC50 [3]: 5.3 ± 0.2 µM
ligand independent growth of KITD814V bearing 32D cells ([4]; 1 μM): significant inhibition
ligand independent growth of KITD814V bearing 32D cells ([4]; 5 μM): significant inhibition
IC50 [5]: 0.17 ± 0.02 µM
phosphorylation of SHP2, Akt and Erk1/2 in KITD814V bearing 32D cells [6]: dose dependent inhibition
preference for SHP2 over PTP1B [7]: 11 fold
IC50 [8]: 1.09 ± 0.04 µM
growth of WT KIT bearing 32D cells [9]: no significant suppression
